System: Mouse PERK
Assay: In vitro kinase inhibition assay: PERK-mediated eIF2α phosphorylation
Assay type: biochemical
Details: for Activity (ability to inhibit PERK-mediated eIF2α phosphorylation in vitro): compounds selected in the initial VLS; for relative inhibition of PERK among the six active compounds: initial VLS screening; for inhibition of PERK-dependent eIF2α phosphorylation in vitro: tested at 10 μM (FIG. 1C)
Experimental: Mouse PERK proteins comprising the cytoplasmic portion of the molecule with the delta loop deleted were pre-incubated with varying concentrations of compound at room temperature for 10 minutes. This construct thus contains close to a minimal catalytic domain of PERK, closely similar but not identical to SEQ ID NO: 1. The kinase reaction was initiated by the addition of 2 μM ATP, 0.2 μM γ-[^32P]ATP, 10 μM eIF2α and allowed to proceed at room temperature for 15 minutes (Marciniak et al., “Activation-Dependent Substrate Recruitment by the Eukaryotic Translation Initiation Factor 2 Kinase PERK,” J Cell Biol 172: 201-9 (2006), which is hereby incorporated by reference in its entirety). The phosphorylated eIF2α was then separated on 14% SDS-PAGE and visualized by autoradiography. To determine the selectivity of the compounds, their ability to inhibit protein kinase PKA was also evaluated. Briefly, PKA was pre-incubated with the compound at 40 μM, the highest concentration used in the PERK assay, for 10 minutes. Then, 10 μM ATP, 0.2 μM γ-[^32P]ATP and 10 μM GSTag were added, followed by the incubation at room temperature for 15 minutes.

SMILES | Activity (ability to inhibit PERK-mediated eIF2α phosphorylation in vitro) | concentration range over which PERK inhibition is displayed | relative inhibition of PERK among the six active compounds | inhibition of PERK-dependent eIF2α phosphorylation in vitro
O=C(CNC(=O)c1ccco1)N/N=C/c1ccc(O)cc1 [Compound A2] | inactive |  |  | 
NS(=O)(=O)c1ccc(CNC(=O)/C=C/c2ccc3c(c2)OCO3)cc1 [Compound C6] | inactive |  |  | 
COc1cc(/C=N\N(C)c2nc(-c3ccccc3)cc(-c3ccc(Br)cc3)n2)ccc1O [Compound A4] | active | narrow range of concentration | relatively stronger inhibition of PERK | active
CCOC(=O)c1c(NC(=O)CSc2nc(N)cc(=O)[nH]2)sc2c1CCC2 [Compound E1] | active |  |  | 
CCC(Sc1nnc(COc2ccccc2C)n1C)C(=O)Nc1ccc(C(C)=O)cc1 (stereo not drawn) [Compound D4] | inactive |  |  | 
CCC(Oc1ccccc1)C(=O)Nc1sc2c(c1C(N)=O)CCC(C(C)(C)C)C2 (stereo not drawn) [Compound B2] | active |  |  | 
Cc1ccccc1N1C(=O)CC(SC(=N)N/N=C/c2ccc(O)c(O)c2)C1=O (stereo not drawn) [Compound A3] | inactive |  |  | 

Further lines, results first:

Activity (ability to inhibit PERK-mediated eIF2α phosphorylation in vitro) | concentration range over which PERK inhibition is displayed | relative inhibition of PERK among the six active compounds | inhibition of PERK-dependent eIF2α phosphorylation in vitro | SMILES
inactive |  |  |  | ON=C1CC2C3CC(C12)C1/C(=N\O)CC31 (stereo not drawn) [Compound A1]
inactive |  |  |  | O=C(Nc1ccc(O)cc1C(=O)O)c1ccc(C(=O)Nc2ccc(O)cc2C(=O)O)cc1 [Compound C3]
active |  |  |  | O=C(Nc1cccc(Oc2ccc3c(c2)C(=O)N(c2ccc(O)cc2)C3=O)c1)c1ccco1 [Compound B6]
active | 1 to 25 µM | relatively stronger inhibition of PERK | active | O=C(COc1ccccc1)NC(=S)Nc1ccc(O)c(-c2nc3ccccc3s2)c1 [Compound D1]
active |  |  |  | Cc1ccc(OCCOCCOc2ccccc2/C=C2\SC(=N)NC2=O)cc1 [Compound C1]

— patent US9198891B2, “Method of treating cancer by inhibition of protein kinase-like endoplasmic reticulum protein kinase” (New York University, priority 2010, dated 2015)
